According to PubChem BioAssay AID624076 (Broad Institute, 2012):
Calls of active or inactive are those of the source. How the calls were made is not given here.

Experiment: PubChem AID 624076
Conditions: Carna kinase panel, IMAP FP / mobility shift, at 10 µM, hits give high values

Structure (SMILES): COc1ccccc1[C@@H]1C2=C(CC(C)(C)CC2=O)Nc2n[nH]c(C(F)(F)F)c21
- inhibition (ABL(E255K)): -4.01% (inactive)
- inhibition (ABL(T315I)): 0.608% (inactive)
- inhibition (AKT2): 0.755% (inactive)
- inhibition (AKT3): 0.416% (inactive)
- inhibition (ALK(L1196M)): 2.33% (inactive)
- inhibition (ALK(R1275Q)): 2.67% (inactive)
- inhibition (ARG): -1.1% (inactive)
- inhibition (AXL): 4.36% (inactive)
- inhibition (AurB): 6.59% (inactive)
- inhibition (AurC): 6.9% (inactive)
- inhibition (BRAF, cascade assay): 10.8% (inactive)
- inhibition (BRK): -0.572% (inactive)
- inhibition (BRSK1): 4.37% (inactive)
- inhibition (BTK): -2.3% (inactive)
- inhibition (CDK9/CycT1): 20.5% (inactive)
- inhibition (CHK2): 6.76% (inactive)
- inhibition (CK1e): 0.145% (inactive)
- inhibition (CK1g1): 0.48% (inactive)
- inhibition (CK1g2): 2.84% (inactive)
- inhibition (CK2a2/b): -4.08% (inactive)
- inhibition (CK1d): -0.463% (inactive)
- inhibition (CLK1): 15.1% (inactive)
- inhibition (CLK2): 22.8% (inactive)
- inhibition (CLK3): 5.11% (inactive)
- inhibition (CRIK): 0.502% (inactive)
- inhibition (CaMK2b): 2.08% (inactive)
- inhibition (CaMK4): 2.19% (inactive)
- inhibition (CaMK1d): 0.058% (inactive)
- inhibition (DAPK1): 1.44% (inactive)
- inhibition (DCAMKL2): 3.11% (inactive)
- inhibition (DLK, cascade assay): -3.03% (inactive)
- inhibition (DYRK1A): 13.9% (inactive)
- inhibition (DYRK1B): 52.5%
- inhibition (DYRK2): -4.58% (inactive)
- inhibition (EGFR(L861Q)): -0.865% (inactive)
- inhibition (EML4-ALK): 1.03% (inactive)
- inhibition (EPHA3): -0.86% (inactive)
- inhibition (EPHA5): -0.402% (inactive)
- inhibition (EPHA8): -3.88% (inactive)
- inhibition (EPHB1): 3.24% (inactive)
- inhibition (EPHB4): 2.47% (inactive)
- inhibition (FGFR1): 4.17% (inactive)
- inhibition (FGFR3(K650E)): 2.8% (inactive)
- inhibition (FGFR3(K650M)): 1.1e-14% (inactive)
- inhibition (FGFR4(N535K)): 0.356% (inactive)
- inhibition (FGFR4(V550L)): 4.09% (inactive)
- inhibition (FGFR4): 5.54% (inactive)
- inhibition (FLT4): 9% (inactive)
- inhibition (FMS): -0.377% (inactive)
- inhibition (GSK3a): 101%
- inhibition (HER4): -0.972% (inactive)
- inhibition (HIPK1): 8.84% (inactive)
- inhibition (HIPK3): 3.54% (inactive)
- inhibition (HIPK4): 7.81% (inactive)
- inhibition (Haspin): -1.27% (inactive)
- inhibition (IGF1R): -2.57% (inactive)
- inhibition (IKKb): -2.12% (inactive)
- inhibition (IRAK4): -2.34% (inactive)
- inhibition (IRR): -1.56% (inactive)
- inhibition (JAK2): -0.539% (inactive)
- inhibition (JAK3): 8.04% (inactive)
- inhibition (JNK1): -1.99% (inactive)
- inhibition (JNK2): 3.84% (inactive)
- inhibition (JNK3): 2.16% (inactive)
- inhibition (KIT(T670I)): 8.36% (inactive)
- inhibition (KIT(V560G)): 3.59% (inactive)
- inhibition (KIT): 6.69% (inactive)
- inhibition (LATS2): 3.09% (inactive)
- inhibition (LOK): 8.66% (inactive)
- inhibition (LTK): 11.1% (inactive)
- inhibition (LYNa): 15.1% (inactive)
- inhibition (MAP2K3, cascade assay): 6.17% (inactive)
- inhibition (MAP2K4, cascade assay): 0.115% (inactive)
- inhibition (MAP3K4, cascade assay): 7.41% (inactive)
- inhibition (MAP3K5, cascade assay): 14.4% (inactive)
- inhibition (MAP4K2): 7.36% (inactive)
- inhibition (MARK2): 39.1% (inactive)
- inhibition (MARK4): 48.6% (inactive)
- inhibition (MELK): 7.87% (inactive)
- inhibition (MER): 8.36% (inactive)
- inhibition (MGC42105): 0.183% (inactive)
- inhibition (MINK): -2.54% (inactive)
- inhibition (MLK1, cascade assay): 17.6% (inactive)
- inhibition (MLK2, cascade assay): 4.73% (inactive)
- inhibition (MLK3, cascade assay): 1.88% (inactive)
- inhibition (MSK1): 3.83% (inactive)
- inhibition (MST2): -3.85% (inactive)
- inhibition (MST4): -1.67% (inactive)
- inhibition (NDR1): -0.193% (inactive)
- inhibition (NEK1): 0.375% (inactive)
- inhibition (NEK2): 0.761% (inactive)
- inhibition (NEK6): 3.82% (inactive)
- inhibition (NEK7): -4.5% (inactive)
- inhibition (PAK3): 33.4% (inactive)
- inhibition (PAK4): 17.6% (inactive)
- inhibition (PAK5): 14.9% (inactive)
- inhibition (PASK): 3.87% (inactive)
- inhibition (PBK): 0.885% (inactive)
- inhibition (PDGFRa(V561D)): 2.12% (inactive)
- inhibition (PEK): -3.83% (inactive)
- inhibition (PGK): 0.119% (inactive)
- inhibition (PHKG1): 5.52% (inactive)
- inhibition (PIK3CA/PIK3R1): -2.01% (inactive)
- inhibition (PIM2): 0.406% (inactive)
- inhibition (PIM3): 8.57% (inactive)
- inhibition (PKACg): 1.21% (inactive)
- inhibition (PKCa): 4.41% (inactive)
- inhibition (PKCb2): 9.38% (inactive)
- inhibition (PKCd): 8.65% (inactive)
- inhibition (PKCg): 5.54% (inactive)
- inhibition (PKD1): -0.973% (inactive)
- inhibition (PKD2): 0.969% (inactive)
- inhibition (PKD3): 5.41% (inactive)
- inhibition (PKN1): 23.4% (inactive)
- inhibition (PLK1): 0.912% (inactive)
- inhibition (PRKX): -1.49% (inactive)
- inhibition (RET(S891A)): 16.1% (inactive)
- inhibition (RET(Y791F)): 2.31% (inactive)
- inhibition (ROCK1): 6.72% (inactive)
- inhibition (ROCK2): 2.67% (inactive)
- inhibition (ROS): 82.7%
- inhibition (RSK1): 8.92% (inactive)
- inhibition (RSK2): 10.7% (inactive)
- inhibition (RSK4): 10.3% (inactive)
- inhibition (SGK3): 0.498% (inactive)
- inhibition (SIK): 3.03% (inactive)
- inhibition (SLK): 10.4% (inactive)
- inhibition (SRC): 4% (inactive)
- inhibition (SRM): -2.09% (inactive)
- inhibition (SRPK1): 13.7% (inactive)
- inhibition (SYK): -0.473% (inactive)
- inhibition (TAK1-TAB1, cascade assay): 3.32% (inactive)
- inhibition (TIE2): 4.15% (inactive)
- inhibition (TNK1): 3.87% (inactive)
- inhibition (TRKA): 54.8%
- inhibition (TSSK3): 0% (inactive)
- inhibition (TYK2): -1.6% (inactive)
- inhibition (WNK2): -0.427% (inactive)
- inhibition (p38a): 1.28% (inactive)
- inhibition (p38d): 15.7% (inactive)
